Results from ChEMBL document CHEMBL1201862, “PubChem BioAssay data set” (2004).
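Exposure lasted 48 hours, with cells grown in 96-well plates and compounds tested at five concentrations. Abbreviation: GI50, concentration required for 50% inhibition of growth.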 Active and inactive are the calls of the source. No stated cut-off is given here; in the data, active = GI50 up to about 1.1 µM and inactive = higher.

Legend:
Test in all cases: growth of human tumour cells (NCI), 48 h
[1] = tested on: Malme-3M
[2] = tested on: K562
[3] = tested on: A549
[4] = tested on: SK-MEL-28
[5] = tested on: OVCAR-8
[6] = tested on: HOP-18
[7] = tested on: 786-0
[8] = tested on: HCT-15
[9] = tested on: UACC-62
[10] = tested on: KM12
[11] = tested on: SK-MEL-5
[12] = tested on: A498
[13] = tested on: TK-10
[14] = tested on: DLD-1
[15] = tested on: LXFL 529
[16] = tested on: SW-620

Row | SMILES | GI50 [1] | GI50 [2] | GI50 [3] | GI50 [4] | GI50 [5] | GI50 [6] | GI50 [7] | GI50 [8] [µM] | GI50 [9] | GI50 [10] | GI50 [11] | GI50 [12] | GI50 [13] | GI50 [14] | GI50 [15] | GI50 [16]
1 | CCOC(=O)COS(=O)(=O)C(F)(F)F | > 100 µM (inactive) | > 100 µM (inactive) | > 100 µM (inactive) | > 100 µM (inactive) | > 100 µM (inactive) | > 100 µM (inactive) | 35.4 µM (inactive) | 18.5 | > 100 µM (inactive) | > 100 µM (inactive) | > 100 µM (inactive) | > 100 µM (inactive) | > 100 µM (inactive) | 41.2 µM (inactive) | 89.9 µM (inactive) | 
2 | O=C(Cc1ccccc1)N/N=C(/c1nc2ccc([N+](=O)[O-])cc2nc1O)C(O)c1ccco1 (centres undefined) | > 100 µM (inactive) | 44.4 µM (inactive) | > 100 µM (inactive) | > 100 µM (inactive) | > 100 µM (inactive) | > 100 µM (inactive) | > 100 µM (inactive) | 67.8 | > 100 µM (inactive) | > 100 µM (inactive) | 66.4 µM (inactive) | > 100 µM (inactive) | > 100 µM (inactive) | > 100 µM (inactive) | 87.9 µM (inactive) | > 100 µM (inactive)
3 | Nc1c(C(=O)Nc2ccccc2)[n+]([O-])c2ccccc2[n+]1[O-] | > 10 µM (inactive) | 17.1 µM (inactive) | 25.1 µM (inactive) | 17.8 µM (inactive) | 36.8 µM (inactive) | 13.5 µM (inactive) | 13.6 µM (inactive) | 13.1 | 10.5 µM (inactive) | 14.2 µM (inactive) | 14.3 µM (inactive) | 16.9 µM (inactive) | 24.7 µM (inactive) | 15.6 µM (inactive) | 14.4 µM (inactive) | 15.2 µM (inactive)
4 | COC(=O)/C(=C\c1ccc(N(CCC#N)CCC#N)cc1)NC(=O)c1cc([N+](=O)[O-])ccc1Cl | > 100 µM (inactive) | > 100 µM (inactive) | > 100 µM (inactive) | > 100 µM (inactive) | > 100 µM (inactive) | > 100 µM (inactive) | > 100 µM (inactive) | > 100 | > 100 µM (inactive) | > 100 µM (inactive) | > 100 µM (inactive) | > 100 µM (inactive) | > 100 µM (inactive) | > 100 µM (inactive) | > 100 µM (inactive) | > 100 µM (inactive)
5 | O=C(Cn1ccnc1[N+](=O)[O-])NCc1ccc(F)cc1 | > 100 µM (inactive) | > 100 µM (inactive) | > 100 µM (inactive) | > 100 µM (inactive) | > 100 µM (inactive) | > 100 µM (inactive) | > 100 µM (inactive) | > 100 | > 100 µM (inactive) | > 100 µM (inactive) | > 100 µM (inactive) | > 100 µM (inactive) | > 100 µM (inactive) |  | > 100 µM (inactive) | > 100 µM (inactive)
6 | C=CCCCCCCCCCP(=O)(c1ccccc1)c1ccc2c(c1)OCCOCCOCCOCCO2 (centres undefined) | 17.7 µM (inactive) | 9.42 µM (inactive) | 14.6 µM (inactive) | 16.3 µM (inactive) | 15.9 µM (inactive) | 16.3 µM (inactive) | 16.3 µM (inactive) | 13.8 | 15.7 µM (inactive) | 12.8 µM (inactive) | 11.3 µM (inactive) | 14.2 µM (inactive) | 18.4 µM (inactive) | 13.6 µM (inactive) |  | 16 µM (inactive)
7 | Cc1ccc(NC(=O)CC/C(CC(=O)C(C)(C)C)=N/NC(=O)C[N+](C)(C)C)cc1C | > 100 µM (inactive) | > 100 µM (inactive) | 21.7 µM (inactive) | > 100 µM (inactive) | > 100 µM (inactive) | > 100 µM (inactive) | 18.2 µM (inactive) | > 100 | > 100 µM (inactive) | > 100 µM (inactive) | > 100 µM (inactive) |  | > 100 µM (inactive) | > 100 µM (inactive) | > 100 µM (inactive) | > 100 µM (inactive)
8 | C[C@@H](NC1CCC[C@H]1O)c1ccccc1 (some centres undefined) | > 100 µM (inactive) | > 100 µM (inactive) | > 100 µM (inactive) | > 100 µM (inactive) | > 100 µM (inactive) | > 100 µM (inactive) | > 100 µM (inactive) | > 100 | > 100 µM (inactive) | > 100 µM (inactive) | > 100 µM (inactive) |  | > 100 µM (inactive) | > 100 µM (inactive) | > 100 µM (inactive) | > 100 µM (inactive)
9 | CCOP(=O)(OCC)C1CCCCOC1=O (centres undefined) | > 100 µM (inactive) | 44 µM (inactive) | > 100 µM (inactive) | > 100 µM (inactive) | > 100 µM (inactive) | 44.2 µM (inactive) | > 100 µM (inactive) | > 100 | > 100 µM (inactive) | > 100 µM (inactive) | > 100 µM (inactive) | > 100 µM (inactive) | > 100 µM (inactive) | > 100 µM (inactive) | > 100 µM (inactive) | > 100 µM (inactive)
